Laboratory results published in patent US20130041005A1, “PHARMACEUTICAL COMPOSITIONS COMPRISING NEUROPILIN INHIBITORS, AND THEIR USE FOR THE PREVENTION AND/OR TREATMENT OF ANGIOGENIC DISORDERS AND CANCERS” (TRAGEX PHARMA, priority 2011, published 2013).

Assays:
MIA PaCa-2 = experiment: WST-1 proliferation assay, MIA PaCa-2; type: cell-based; settings: Homo sapiens; Pancreas MIA PaCa-2, 72 h; read-out: Anti-proliferative activity IC50 (μM) ± SD
Excerpt: Several cancer cell lines were used: breast cancer cells (MDA-MB-231 (ATTCC® Number HTB-26™), MDA-MB-436 (ATTCC® Number HTB-130™), MDA-MB-438, BT-474 (ATTCC® Number HTB-20™)); cervical cancer cells (HeLa (ATTCC® Number CCL-2™)); colon cancer cells (HCT-116 (ATTCC® Number CCL-247™) and HT-29 (ATTCC® Number HTB-38™)); osteosarcoma cells (U2OS (ATTCC® Number HTB-96™)); pancreas cancer cells (MIA PaCa-2 (ATTCC® Number CRL-1420™) and Panc-10.5 (ATTCC® Number CRL-2547™)); prostate cancer cells (PC-3 (ATTCC® Number CRL-1435™) and LNCaP (ATTCC® Number CRL-1740™)); brain cancer cells (U87 glioblastoma (ATTCC® Number HTB-14™) and SH-SYSY neuroblastoma (ATTCC® Number CRL-2266™)). […]
After observation of cells under the microscope, old media were removed and the adherent cells washed gently twice with PBS (Phosphate Buffer Saline, —Ca^2+, —Mg^2+, Lonza cat no: 17-512F/12). […] 50 μl of this solution were transferred in 20 μl of isotonic solution and the cells were counted by count cellular (Beckman Coulter). […]
(§1) The cell proliferation WST-1 assay is a colorimetric assay for the quantification of cell proliferation and viability, based on the enzymatic cleavage of the tetrazolium salt WST-1 added to the culture medium, to a water soluble colored formazan dye, detected by absorbance at 450 nm, by mitochondrial succinate-tetrazolium reductase in viable cells. […]

U87 glioblastoma = experiment: WST-1 proliferation assay, U87; type: cell-based; settings: Homo sapiens
U266 = experiment: WST-1 proliferation assay, U266; type: cell-based; settings: Homo sapiens, U-266; Myeloma U266; read-out: Anti-proliferative activity IC50 (μM) ± SD
Experimental: (§2) All the cancer cell lines were maintained in cultured in DMEM GlutaMAX™ (GIBCO Invitrogen, France, cat no 31966047) enhanced with 10% foetal bovine serum (GIBCO Invitrogen, France, cat no 10270-106) and 1% penicillin G/streptomycin (GIBCO Invitrogen, France, cat no 15140-122). Only Panc-10.5 cells were cultivated in RPMI 1640 medium (Gibco) supplemented with 2 mM L-glutamine, 1.5 g/L sodium bicarbonate, 4.5 g/L glucose, 10 mM HEPES, 1 mM sodium pyruvate, 10 Units/ml human insulin, […] (SVF): 15% (75 ml in 500 ml of medium).
Cells were grown as subconfluent monolayer and cultured in 75 cm^2 flasks at 37° C., 5% CO2 in a humidified atmosphere, and medium was changed every two days. […]
as §1
After an incubation period of 72 h, at day 4, were prepared the 19 ml medium with reagent WST-1 1 ml ([…]). […] The cells were incubated at 37° C. in a humidified atmosphere of 5% CO2 for 1 h 30 and the absorbance at 450-655 nm was measured by Microplate Manager 5.2 (Bio-Rad).

MDAMB-231 cells = experiment: Adhesion test (crystal violet), MDA-MB-231; type: cell-based, Human; settings: MDAMB-231, FIGS. 1A-C
Experimental: The crystal violet (hexamethyl pararosaniline chloride) is used as biologic colorant. It enters in the living cells, allowing the visualisation of the dark purple adherent living cells on the bottom of the plate.
After an incubation period of 72 h, the adherent cells were fixed with […] paraformaldehyde
3% for 15 min at room temperature. The medium and non-adherent cells were removed, and the cells were washed extensively with […] PBS (+Ca^2+ and +Mg^2+) (Lonza) and then stained with 50 μl of crystal violet 0.04% for 30 min at room temperature. The cells were washed gently 3 times with 100 μl PBS and were permeabilised with 100 μl triton 2% for 15 min. The microplate was stirred to obtain a homogenous solution and absorbance was quantified at 580 nm by Microplate Manager 5.2.
The percentage of inhibition is calculated as follow: % inhibition=100−[(DOsample/DOcontrol)*100].

HeLa = experiment: WST-1 proliferation assay, HeLa; type: cell-based; settings: Homo sapiens; for IC50: Cervical HeLa, 72 h, read-out: Anti-proliferative activity IC50 (μM) ± SD; for inhibition at 0.1 µM / inhibition at 0.5 µM / inhibition at 1 µM: HeLa
Excerpt: (§3) Several cancer cell lines were used: breast cancer cells (MDA-MB-231 (ATTCC® Number HTB-26™), MDA-MB-436 (ATTCC® Number HTB-130™), MDA-MB-438, BT-474 (ATTCC® Number HTB-20™)); cervical cancer cells (HeLa (ATTCC® Number CCL-2™)); colon cancer cells (HCT-116 (ATTCC® Number CCL-247™) and HT-29 (ATTCC® Number HTB-38™)); osteosarcoma cells (U2OS (ATTCC® Number HTB-96™)); pancreas cancer cells (MIA PaCa-2 (ATTCC® Number CRL-1420™) and Panc-10.5 (ATTCC® Number CRL-2547™)); prostate cancer cells (PC-3 (ATTCC® Number CRL-1435™) and LNCaP (ATTCC® Number CRL-1740™)); brain cancer cells (U87 glioblastoma (ATTCC® Number HTB-14™) and SH-SYSY neuroblastoma (ATTCC® Number CRL-2266™)).
as §2
(§4) Cells were grown as subconfluent monolayer and cultured in 75 cm^2 flasks at 37° C., 5% CO2 in a humidified atmosphere, and medium was changed every two days. Only cells from passages 2-6 were used for the experiments.
(§5) After observation of cells under the microscope, old media were removed and the adherent cells washed gently twice with PBS (Phosphate Buffer Saline, —Ca^2+, —Mg^2+, Lonza cat no: 17-512F/12). All cells were detached with 3 ml of trypsin/EDTA (chelator of calcium and magnesium ions) (Lonza), incubated for 5 min at 37° C., and examined using a microscope to ensure that the cells were detached and floating. Then, 3 ml TNS (Trypsin Neutralizing Solution, Lonza, France, cat no CC-5002) or of culture medium were added to inactivate the trypsin, and the cell suspension was transferred in a falcon and centrifuged for 7 min at 1400 rpm. The supernatant was removed and the cell pellet resuspended in […] of culture medium. 50 μl of this solution were transferred in 20 μl of isotonic solution and the cells were counted by count cellular (Beckman Coulter). At day 0, 200 μl of cellular suspension (3.10^3 cells/well for the HUVEC cells, breast cancer cells (MDA-MB-231 1.10^4 cells/well, MDA-MB-436 1.10^4 cells/well, MDA-MB-438 2.10^4 cells/well, BT-474 2.5.10^4 cells/well); cervical cancer cells (HeLa 5.000 cells/well); colon cancer cells (HCT-116 5.10^3 cells/well, HCT-29 1.1.10^4 cells/well); osteosarcoma cells (U2OS 8.10^3 cells/well); pancreas cancer cells (MIA PaCa-2 5.10^3 cells/well, Panc-10.5 1.5.10^4 cells/well); prostate cancer cells (PC-3 4.10^3 cells/well, LNCaP 2.10^4 cells/well); brain cancer cells (U87 5.10^3 cells/well, SH-SYSY 8.10^4 cells/well)) were then plated on 96 well plates and incubated at 37° C. in a humidified atmosphere of 5% CO2 for 24 h.
(§6) At day 1, the compounds 1 or 2 of the invention were added at increasing concentrations (0.1-10 μM) in the wells and plates were incubated at 37° C. in a humidified atmosphere of 5% CO2 for 72 h.
(§7) The cell proliferation WST-1 assay is a colorimetric assay for the quantification of cell proliferation and viability, based on the enzymatic cleavage of the tetrazolium salt WST-1 added to the culture medium, to a water soluble colored formazan dye, detected by absorbance at 450 nm, by mitochondrial succinate-tetrazolium reductase in viable cells. An augmentation in enzyme activity will then lead to an increase in the amount of formazan dye formed, which directly correlates to the number of metabolically active cells in the culture.
(§8) After an incubation period of 72 h, at day 4, were prepared the 19 ml medium with reagent WST-1 1 ml ([…]). The medium was removed from the 96 microplate and 200 μl of solution WST-1/medium were added for each well. […]

U2OS = experiment: WST-1 proliferation assay, U2OS; type: cell-based; settings: Homo sapiens; for IC50: Osteosarcoma U2OS, 72 h, read-out: Anti-proliferative activity IC50 (μM) ± SD; for inhibition at 0.1 µM / inhibition at 0.5 µM / inhibition at 1 µM: U2OS
Excerpt: as §3, §2, §4, §5, §6, §7, §8

Cc1ccc(-c2nc3ccccc3[nH]2)cc1NC(=S)NC(=O)c1ccc2c(c1)OCCO2 [Compound 1, N-[5-(1H-benzimidazol-2-yl)-2-methylphenyl]-N′-(2,3-dihydro-1,4-benzodioxin-6-ylcarbonyl)thiourea] showed an IC50 (MIA PaCa-2) of 1 µM, an inhibition at 0.05 µM (U87 glioblastoma) of 0% and an IC50 (U266) of 2 µM. For the same compound, the “inhibition of adhesion of cancer cells in culture” value (MDAMB-231 cells) was “inhibited the adhesion”, the IC50 (HeLa) was 0.4 ± 0.04 µM and the inhibition at 0.1 µM (HeLa) was 13%. For the same compound, the inhibition at 0.5 µM (HeLa) was 64%, the inhibition at 1 µM (HeLa) was 68% and the IC50 (U2OS) was 2.3 ± 0.04 µM. For the same compound, the inhibition at 0.1 µM (U2OS) was 15%, the inhibition at 0.5 µM (U2OS) was 29% and the inhibition at 1 µM (U2OS) was 36%.

Compound O=C(NC(=S)Nc1cccc(-c2nc3ccccc3[nH]2)c1)c1ccc2c(c1)OCCO2 [Compound 2, N-[3-(1H-benzimidazol-2-yl)phenyl]-N′-(2,3-dihydro-1,4-benzodioxin-6-ylcarbonyl)thiourea] has an IC50 (MIA PaCa-2) of 1 µM, an inhibition at 0.05 µM (U87 glioblastoma) of 19% and an IC50 (U266) of 1.5 ± 0.04 µM. The “inhibition of adhesion of cancer cells in culture” value (MDAMB-231 cells) was “inhibited the adhesion”, the IC50 (HeLa) was 0.05 ± 0.04 µM and the inhibition at 0.1 µM (HeLa) was 62%. The inhibition at 0.5 µM (HeLa) was 64%, the inhibition at 1 µM (HeLa) was 67% and the IC50 (U2OS) was 1.8 ± 0.05 µM. It also gave an inhibition at 0.1 µM (U2OS) of 31%, an inhibition at 0.5 µM (U2OS) of 41% and an inhibition at 1 µM (U2OS) of 44%.
